Reference: publication PMC11791975, “Highly Sensitive In Vivo Imaging of Bacterial Infections with a Hydrophilicity‐Switching, Self‐Immobilizing, Near‐Infrared Fluorogenic β‐Lactamase Probe Enriched within Bacteria” (Advanced Science, 2024)

Tests used:
[1] = target: T1, New Delhi metallo β lactamase-1 (NDM-1 bla) (Klebsiella pneumoniae, UniProt C7C422); assay: biochemical; design: beta-lactamase inhibition, fluorogenic substrate CDC-1 hydrolysis, initial velocity, 10 min preincubation
T1 construct: gene blaNDM-1
T1 sequence (C7C422 29-270 limits assumed): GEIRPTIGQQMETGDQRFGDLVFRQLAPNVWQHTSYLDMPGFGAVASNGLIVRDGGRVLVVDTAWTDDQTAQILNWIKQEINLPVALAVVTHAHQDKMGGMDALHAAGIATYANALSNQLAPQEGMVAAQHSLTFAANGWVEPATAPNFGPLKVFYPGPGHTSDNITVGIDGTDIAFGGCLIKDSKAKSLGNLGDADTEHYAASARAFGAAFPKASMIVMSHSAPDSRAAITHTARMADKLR
Method: (§1) 36 and imaged with an Odyssey SA near-infrared two-color laser imaging system, followed by staining with Coomassie brilliant blue. Assay for IC50 of β-Lactamase Inhibitor The IC50 was determined following the reported protocol with minor modifications. […] The initial velocity (V0) was calculated using the linear portions of the curves. Each experiment was triplicated. The IC50 was obtained by fitting a dose-response curve using Graph Pad Prism 7 software.

[2] = target: TEM-1 β-lactamase (TEM-1 bla) (Escherichia coli, UniProt P62593); assay: biochemical; design: beta-lactamase inhibition, fluorogenic substrate CDC-1 hydrolysis, initial velocity, 10 min preincubation; settings: read-out: IC50 (μM) ebselen TEM-1
Chain of TEM-1 β-lactamase (TEM-1 bla) (P62593 24-286 limits assumed): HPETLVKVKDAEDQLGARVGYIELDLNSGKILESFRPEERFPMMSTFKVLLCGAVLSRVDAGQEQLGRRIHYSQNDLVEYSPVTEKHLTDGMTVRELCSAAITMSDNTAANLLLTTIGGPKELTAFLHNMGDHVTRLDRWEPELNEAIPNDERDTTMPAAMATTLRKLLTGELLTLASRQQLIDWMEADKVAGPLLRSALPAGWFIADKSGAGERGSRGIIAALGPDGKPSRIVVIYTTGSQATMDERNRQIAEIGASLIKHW
Method: as §1

[3] = target: T1, New Delhi metallo β lactamase-1 (NDM-1 bla); assay: in vitro β-lactamase inhibition assay (IC50, Figure S29; also cites ref […]); type: biochemical

SMILES	IC50 [1] [µM]	IC50 [2] [µM]	IC50 [3] [µM]
NC(=O)[C@@H]1CC[C@@H]2CN1C(=O)N2OS(=O)(=O)O [avibactam]	> 25		
O=c1c2ccccc2[se]n1-c1ccccc1 [ebselen]		> 25	0.508
